Source: US10000483B2, “Bone marrow on X chromosome kinase (BMX) inhibitors and uses thereof” (Dana-Farber Cancer Institute, Inc., priority 2012, dated 2018)
Several values for one entry are separate records, joined by “and”; a condition that tells them apart may be missing. Equal values may be shown once. Values belong to the compound of their own block, whether it stands above or below them.

Experiments:
[1] = system: Bmx- MEF cells stably overexpressing BmxWT; assay: Wound healing assay; assay type: cell-based, mouse; conditions: preincubated 4 h; leading edges at 0 and 9 h
Description: FIGS. 3A-B show the immunoblotting results where BMX (SiBMX) or control siRNA (SiCtrl) transfected LNCaP cells (FIG. 3A) or VCS2 cells (FIG. 3B) were serum starved for 72 h, serum was stimulated for the indicated times, and the whole cell lysates were immunoblotted. […] FIG. 3G is a bar graph showing the migrated distances where scratch wounds were introduced into confluent heterozygous for Bmx (Bmx^+/−), Bmx^+, or Bmx^− MEFs, and the leading edges were photographed at 0 and 9 h. The migrated distance was measured and normalized to #1 Bmx-group. Error bars depict standard error (SE) for three experiments (***: p<0.001). FIG. 3H is a bar graph showing the migrated distances where scratch wounds were introduced into confluent Bmx^− MEFs stably overexpressing BmxWT, BmxKD, or empty vector (EV), and the leading edges were photographed at 0 and 9 h. The migrated distance was measured and normalized to EV group. Error bar depict standard error (SE) for three independent experiments (*: p<0.05). FIG. 3I is a bar graph showing the migrated distances where Bmx^− MEF cells stably overexpressing BmxWT were preincubated with FAK inhibitor (PF562271) for 4 h. Scratch wounds were introduced into the cells, and the leading edges were photographed at 0 and 9 h. The migrated distance was measured and normalized to control group (Ctrl). […]

JNK1 = JNK1 (Homo sapiens (Human), UniProt P45983); assay: Kinase panel at 1 uM (Table 9); assay type: binding; conditions: read-out: % inhibition at 1 uM, JNK1
Description: (§2) Screening hits are identified by measuring the amount of protein captured in test versus control samples by using a quantitative, precise, and ultra-sensitive qPCR method that detects the associated DNA label.

PIK3CG = PIK3CG (Homo sapiens (Human), UniProt P48736); assay: Kinase panel at 1 uM (Table 9); assay type: binding; conditions: read-out: % inhibition at 1 uM, PIK3CG
Description: as §2

ITK = ITK (Homo sapiens (Human), UniProt Q08881); assay: DiscoverX binding assay
Description: as §2

PIK4CB = PIK4CB (Homo sapiens (Human), UniProt Q9UBF8); assay: Kinase panel at 1 uM (Table 9); assay type: binding; conditions: read-out: % inhibition at 1 uM, PIK4CB
Description: as §2

DYRK1A = DYRK1A (Homo sapiens (Human), UniProt Q13627); assay: Kinase panel at 1 uM (Table 9); assay type: binding; conditions: read-out: % inhibition at 1 uM, DYRK1A
Description: as §2

OCI-Ly3 cells = assay: Cell proliferation analysis for WM and lymphoma cell lines (CellTiter-Glo); assay type: cell-based; conditions: Homo sapiens, 72 hours
Description: (§3) Various cell lines were used including Waldenström's macroglobulinemia (WM) cell lines (BCWM.1, MWCL-1, RPCI-WM1) and B-cell lymphoma cell lines (OCI-Ly3, Ramos, OCI-Ly19). Cells were seeded into 384 well plates with the EL406 Combination Washer Dispenser (BioTek Instruments, Inc.) and inhibitor compounds were injected into the cells culture media with the JANUS Automated Workstation (PerkinElmer Inc.).

OCI-Ly19 cells = assay: as above; assay type: cell-based; conditions: Homo sapiens, 72 hours
Description: as §3

CSNK2A2 = CSNK2A2 (Homo sapiens (Human), UniProt P19784); assay: Kinase panel at 1 uM (Table 9); assay type: binding; conditions: read-out: % inhibition at 1 uM, CSNK2A2
Description: as §2

DYRK2 = DYRK2 (Homo sapiens (Human), UniProt Q92630); assay: Kinase panel at 1 uM (Table 9); assay type: binding; conditions: read-out: % inhibition at 1 uM, DYRK2
Description: as §2

BMX [2] = biological target: T1, BMX (Homo sapiens (Human), UniProt P51813); assay: Invitrogen Select Screening in vitro kinase assay; assay type: biochemical
PIP5K2C = PIP5K2C (Homo sapiens (Human), UniProt Q8TBX8); assay: Kinase panel at 1 uM (Table 9); assay type: binding; conditions: read-out: % inhibition at 1 uM, PIP5K2C
Description: as §2

EGFR(T790M) [3] = biological target: T2, EGFR(T790M) (Homo sapiens (Human), UniProt P00533, T790M); assay: DiscoverX binding assay
Description: as §2

Ramos cells = assay: Cell proliferation analysis for WM and lymphoma cell lines (CellTiter-Glo); assay type: cell-based; conditions: Homo sapiens, 72 hours
Description: as §3

JNK3 = JNK3 (Homo sapiens (Human), UniProt P53779); assay: Kinase panel at 1 uM (Table 9); assay type: binding; conditions: read-out: % inhibition at 1 uM, JNK3
Description: as §2

mTOR [4] = biological target: T3, mTOR (Homo sapiens (Human), UniProt P42345); assay: DiscoverX binding assay; conditions: DiscoverX binding
Description: as §2

EGFR(T790M) [5] = biological target: T2, EGFR(T790M); assay: Invitrogen Select Screening in vitro kinase assay; assay type: biochemical
IRAK3 = IRAK3 (Homo sapiens (Human), UniProt Q9Y616); assay: Kinase panel at 1 uM (Table 9); assay type: binding; conditions: read-out: % inhibition at 1 uM, IRAK3
Description: as §2

CLK1 [6] = biological target: T4, CLK1 (Homo sapiens (Human), UniProt P49759); assay: Invitrogen Select Screening in vitro kinase assay; assay type: biochemical; conditions: first value of CLK1/2 cell
BMX [7] = biological target: T1, BMX; assay: DiscoverX binding assay
Description: as §2

MKNK2 = MKNK2 (Homo sapiens (Human), UniProt Q9HBH9); assay: Kinase panel at 1 uM (Table 9); assay type: binding; conditions: read-out: % inhibition at 1 uM, MKNK2
Description: as §2

BLK [8] = biological target: T5, BLK (Homo sapiens (Human), UniProt P51451); assay: DiscoverX binding assay
Description: as §2

JAK3 [9] = biological target: T6, JAK3 (Homo sapiens (Human), UniProt P52333); assay: DiscoverX binding assay
Description: as §2

BLK [10] = biological target: T5, BLK; assay: Invitrogen Select Screening in vitro kinase assay; assay type: biochemical
Excerpt: (§1) The in vitro activity of compounds of Formula (I) and (II) in inhibiting BMX and other kinases were obtained using an Invitrogen Select Screening assay as known in the art. The IC50 values determined from this assay are shown below.

mTOR [11] = biological target: T3, mTOR; assay: Invitrogen Select Screening in vitro kinase assay; assay type: biochemical
Excerpt: as §1

YSK4 = YSK4 (Homo sapiens (Human), UniProt Q56UN5); assay: Kinase panel at 1 uM (Table 9); assay type: binding; conditions: read-out: % inhibition at 1 uM, YSK4
Description: as §2

TEC = TEC (Homo sapiens (Human), UniProt P42680); assay: DiscoverX binding assay
Description: as §2

MWCL-1 cells = assay: Cell proliferation analysis for WM and lymphoma cell lines (CellTiter-Glo); assay type: cell-based; conditions: 72 hours
Description: as §3

DYRK1B = DYRK1B (Homo sapiens (Human), UniProt Q9Y463); assay: Kinase panel at 1 uM (Table 9); assay type: binding; conditions: read-out: % inhibition at 1 uM, DYRK1B
Description: as §2

FLT3(ITD) = assay: Kinase panel at 1 uM (Table 9); assay type: binding
Description: as §2

MEK5 = MEK5 (Homo sapiens (Human), UniProt Q13163); assay: Kinase panel at 1 uM (Table 9); assay type: binding; conditions: read-out: % inhibition at 1 uM, MEK5
Description: as §2

TAK1 = TAK1 (Homo sapiens (Human), UniProt O43318); assay: Kinase panel at 1 uM (Table 9); assay type: binding; conditions: read-out: % inhibition at 1 uM, TAK1
Description: as §2

CLK2 [12] = biological target: T7, CLK2 (Homo sapiens (Human), UniProt P49760); assay: Invitrogen Select Screening in vitro kinase assay; assay type: biochemical; conditions: second value of CLK1/2 cell
PIK3CA(I800L) = PIK3CA(I800L) (Homo sapiens (Human), UniProt P42336, I800L); assay: Kinase panel at 1 uM (Table 9); assay type: binding; conditions: read-out: % inhibition at 1 uM, PIK3CA(I800L)
Description: as §2

JAK3 [13] = biological target: T6, JAK3; assay: Invitrogen Select Screening in vitro kinase assay; assay type: biochemical
CLK1 [14] = biological target: T4, CLK1; assay: DiscoverX binding assay
Description: as §2

CLK2 [15] = biological target: T7, CLK2; assay: DiscoverX binding assay
Description: as §2

BTK [16] = biological target: T8, BTK (Homo sapiens (Human), UniProt Q06187); assay: Invitrogen Select Screening in vitro kinase assay; assay type: biochemical
BTK [17] = biological target: T8, BTK; assay: DiscoverX binding assay
Description: as §2

BCWM.1 cells = assay: Cell proliferation analysis for WM and lymphoma cell lines (CellTiter-Glo); assay type: cell-based; conditions: BCWM1; 72 hours
Description: as §3

[18] = system: CD19+ B-cells from a Waldenstrom's macroglobulinemia patient; assay: Apoptosis analysis of primary patient cells (Annexin V/propidium iodide); assay type: cell-based, human; conditions: patient after six months of ibrutinib treatment; FIG. 22
Description: Primary patient WM cells genotyped for MYD88 L265P, as well as MYD88 WT healthy donor CD19-selected peripheral blood mononuclear cells (PBMCs) were treated with and without inhibitor compounds. Cells were incubated at 37° C. with 0.01˜4 μM of an inhibitor compound of Formula (I) or (II) (e.g., 11-4). Apoptosis analysis was performed using Annexin V-FITC/Propidium iodide staining with the Apoptosis Detection Kit I (BD Pharmingen). 1×10^6/well cells were treated in 24 well plates for˜24 hours with inhibitor compounds or corresponding controls. A minimum of 10,000 events were acquired using a BD™ FACSCanto II flow cytometer and analyzed with BD FACS DIVA Software.

RV-1 cells = assay: Combination of I-14 with MK2206, dose-response in RV-1 cells; conditions: with I-14

T4 sequence (P49759 whole entry): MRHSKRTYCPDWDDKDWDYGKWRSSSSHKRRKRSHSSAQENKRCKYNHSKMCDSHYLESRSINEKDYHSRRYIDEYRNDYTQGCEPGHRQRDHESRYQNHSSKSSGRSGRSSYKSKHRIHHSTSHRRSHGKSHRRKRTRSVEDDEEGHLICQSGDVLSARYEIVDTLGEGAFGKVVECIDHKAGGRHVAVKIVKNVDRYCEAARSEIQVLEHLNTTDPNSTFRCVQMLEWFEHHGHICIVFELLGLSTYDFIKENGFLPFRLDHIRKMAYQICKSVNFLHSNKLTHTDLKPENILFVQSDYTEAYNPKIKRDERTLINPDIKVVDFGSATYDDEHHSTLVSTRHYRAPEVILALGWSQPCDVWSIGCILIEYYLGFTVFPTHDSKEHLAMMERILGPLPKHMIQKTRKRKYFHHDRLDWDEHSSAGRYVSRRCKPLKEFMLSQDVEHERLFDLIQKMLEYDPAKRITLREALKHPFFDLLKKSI
T8 sequence (Q06187 whole entry): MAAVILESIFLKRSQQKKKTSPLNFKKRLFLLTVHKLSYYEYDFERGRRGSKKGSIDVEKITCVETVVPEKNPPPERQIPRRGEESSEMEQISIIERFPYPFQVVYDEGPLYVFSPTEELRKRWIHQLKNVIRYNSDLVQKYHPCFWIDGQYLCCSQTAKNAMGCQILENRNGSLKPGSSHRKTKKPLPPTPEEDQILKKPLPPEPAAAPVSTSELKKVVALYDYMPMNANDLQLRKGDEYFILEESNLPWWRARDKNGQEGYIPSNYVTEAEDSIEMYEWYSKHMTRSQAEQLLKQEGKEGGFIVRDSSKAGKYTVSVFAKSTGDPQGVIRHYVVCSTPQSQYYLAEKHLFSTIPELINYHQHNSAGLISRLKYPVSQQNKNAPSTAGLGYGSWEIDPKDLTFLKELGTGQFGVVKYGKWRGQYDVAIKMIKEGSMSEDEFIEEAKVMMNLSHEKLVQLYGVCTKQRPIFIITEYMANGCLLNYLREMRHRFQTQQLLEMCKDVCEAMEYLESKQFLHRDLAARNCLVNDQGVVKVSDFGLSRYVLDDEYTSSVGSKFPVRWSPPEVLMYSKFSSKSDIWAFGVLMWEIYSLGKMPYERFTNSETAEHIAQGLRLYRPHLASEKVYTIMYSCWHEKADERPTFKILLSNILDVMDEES
T6 sequence (P52333 whole entry): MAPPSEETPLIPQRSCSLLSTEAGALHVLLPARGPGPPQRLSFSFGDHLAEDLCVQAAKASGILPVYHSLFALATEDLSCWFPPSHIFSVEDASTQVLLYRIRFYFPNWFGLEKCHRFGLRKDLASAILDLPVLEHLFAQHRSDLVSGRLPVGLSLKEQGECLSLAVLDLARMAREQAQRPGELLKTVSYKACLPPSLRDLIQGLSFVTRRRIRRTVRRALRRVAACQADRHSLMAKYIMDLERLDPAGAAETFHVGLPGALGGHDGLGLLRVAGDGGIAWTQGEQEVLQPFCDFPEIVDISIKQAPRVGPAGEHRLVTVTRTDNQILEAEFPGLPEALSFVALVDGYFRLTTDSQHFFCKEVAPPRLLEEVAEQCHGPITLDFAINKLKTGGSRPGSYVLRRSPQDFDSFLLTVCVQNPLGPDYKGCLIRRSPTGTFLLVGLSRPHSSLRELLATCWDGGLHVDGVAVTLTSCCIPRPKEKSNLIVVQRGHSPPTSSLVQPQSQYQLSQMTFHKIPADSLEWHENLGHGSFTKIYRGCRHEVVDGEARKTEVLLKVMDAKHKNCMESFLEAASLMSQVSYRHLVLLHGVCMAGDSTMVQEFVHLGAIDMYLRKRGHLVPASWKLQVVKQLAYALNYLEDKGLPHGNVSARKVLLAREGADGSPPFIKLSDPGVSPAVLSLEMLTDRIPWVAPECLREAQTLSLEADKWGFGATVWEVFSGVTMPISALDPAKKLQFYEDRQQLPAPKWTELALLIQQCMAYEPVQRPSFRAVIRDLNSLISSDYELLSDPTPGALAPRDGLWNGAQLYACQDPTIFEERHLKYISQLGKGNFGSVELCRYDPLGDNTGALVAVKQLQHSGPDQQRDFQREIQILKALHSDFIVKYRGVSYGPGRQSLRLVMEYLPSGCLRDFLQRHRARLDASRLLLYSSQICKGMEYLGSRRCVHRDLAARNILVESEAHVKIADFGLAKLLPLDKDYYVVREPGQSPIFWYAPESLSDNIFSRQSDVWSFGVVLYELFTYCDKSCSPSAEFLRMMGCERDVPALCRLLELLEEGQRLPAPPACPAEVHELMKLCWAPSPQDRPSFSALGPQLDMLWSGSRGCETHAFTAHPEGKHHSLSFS
T5 sequence (P51451 whole entry): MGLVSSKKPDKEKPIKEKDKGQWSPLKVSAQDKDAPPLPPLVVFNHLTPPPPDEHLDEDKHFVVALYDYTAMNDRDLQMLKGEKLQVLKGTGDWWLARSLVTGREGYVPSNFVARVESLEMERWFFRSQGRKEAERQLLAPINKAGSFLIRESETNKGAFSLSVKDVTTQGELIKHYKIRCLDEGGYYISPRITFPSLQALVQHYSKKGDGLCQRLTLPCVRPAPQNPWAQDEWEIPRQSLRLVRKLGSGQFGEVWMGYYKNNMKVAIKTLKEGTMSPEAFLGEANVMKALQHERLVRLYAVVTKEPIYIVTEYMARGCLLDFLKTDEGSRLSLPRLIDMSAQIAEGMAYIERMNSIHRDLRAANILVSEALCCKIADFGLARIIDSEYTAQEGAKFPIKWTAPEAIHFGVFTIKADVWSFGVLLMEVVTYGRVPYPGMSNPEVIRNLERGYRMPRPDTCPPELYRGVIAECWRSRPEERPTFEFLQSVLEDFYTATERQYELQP
T7 sequence (P49760 whole entry): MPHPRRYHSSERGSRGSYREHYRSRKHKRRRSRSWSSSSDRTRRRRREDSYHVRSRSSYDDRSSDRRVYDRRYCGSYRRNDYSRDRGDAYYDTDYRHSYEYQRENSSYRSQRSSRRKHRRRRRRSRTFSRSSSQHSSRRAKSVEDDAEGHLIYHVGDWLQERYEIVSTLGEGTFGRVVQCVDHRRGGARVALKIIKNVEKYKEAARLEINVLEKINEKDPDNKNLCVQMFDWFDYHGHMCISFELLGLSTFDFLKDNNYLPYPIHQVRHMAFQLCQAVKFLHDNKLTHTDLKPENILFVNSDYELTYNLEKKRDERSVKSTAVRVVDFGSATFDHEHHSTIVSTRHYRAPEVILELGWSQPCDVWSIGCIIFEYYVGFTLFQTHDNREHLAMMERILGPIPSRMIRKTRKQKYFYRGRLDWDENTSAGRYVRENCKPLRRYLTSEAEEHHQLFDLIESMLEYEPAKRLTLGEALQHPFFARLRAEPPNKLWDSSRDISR
T1 sequence (P51813 whole entry): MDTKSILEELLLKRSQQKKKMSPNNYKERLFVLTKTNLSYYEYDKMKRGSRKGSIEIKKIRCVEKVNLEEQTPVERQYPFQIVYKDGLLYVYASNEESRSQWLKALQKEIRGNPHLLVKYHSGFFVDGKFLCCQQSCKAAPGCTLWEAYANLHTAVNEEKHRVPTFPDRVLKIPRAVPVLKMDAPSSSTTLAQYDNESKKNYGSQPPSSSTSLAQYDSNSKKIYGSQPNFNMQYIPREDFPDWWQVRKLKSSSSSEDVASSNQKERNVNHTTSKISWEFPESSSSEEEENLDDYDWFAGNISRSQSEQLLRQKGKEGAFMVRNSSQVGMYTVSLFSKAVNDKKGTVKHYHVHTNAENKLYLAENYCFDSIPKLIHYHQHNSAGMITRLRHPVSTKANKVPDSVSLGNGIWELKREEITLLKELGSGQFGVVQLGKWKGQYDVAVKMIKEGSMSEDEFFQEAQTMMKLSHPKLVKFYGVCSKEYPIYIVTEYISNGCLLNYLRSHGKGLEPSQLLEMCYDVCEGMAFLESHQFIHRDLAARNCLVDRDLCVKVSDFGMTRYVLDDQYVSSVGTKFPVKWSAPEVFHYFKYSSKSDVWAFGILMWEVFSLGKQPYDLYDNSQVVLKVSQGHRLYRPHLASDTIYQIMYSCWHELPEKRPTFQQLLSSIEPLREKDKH
MKNK2, sequence (Q9HBH9 whole entry): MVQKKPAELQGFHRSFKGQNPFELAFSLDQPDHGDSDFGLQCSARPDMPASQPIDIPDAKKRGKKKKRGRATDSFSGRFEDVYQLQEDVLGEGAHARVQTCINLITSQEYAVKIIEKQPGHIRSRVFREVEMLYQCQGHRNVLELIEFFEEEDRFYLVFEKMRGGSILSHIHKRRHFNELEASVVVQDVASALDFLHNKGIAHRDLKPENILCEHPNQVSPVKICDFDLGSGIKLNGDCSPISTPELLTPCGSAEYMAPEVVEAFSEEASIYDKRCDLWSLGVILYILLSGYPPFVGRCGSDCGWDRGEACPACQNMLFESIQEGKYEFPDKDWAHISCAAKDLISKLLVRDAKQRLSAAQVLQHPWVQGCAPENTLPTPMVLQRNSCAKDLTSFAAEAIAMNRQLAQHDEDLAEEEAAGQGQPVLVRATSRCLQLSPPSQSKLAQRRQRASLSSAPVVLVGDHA
TAK1, sequence (O43318 whole entry): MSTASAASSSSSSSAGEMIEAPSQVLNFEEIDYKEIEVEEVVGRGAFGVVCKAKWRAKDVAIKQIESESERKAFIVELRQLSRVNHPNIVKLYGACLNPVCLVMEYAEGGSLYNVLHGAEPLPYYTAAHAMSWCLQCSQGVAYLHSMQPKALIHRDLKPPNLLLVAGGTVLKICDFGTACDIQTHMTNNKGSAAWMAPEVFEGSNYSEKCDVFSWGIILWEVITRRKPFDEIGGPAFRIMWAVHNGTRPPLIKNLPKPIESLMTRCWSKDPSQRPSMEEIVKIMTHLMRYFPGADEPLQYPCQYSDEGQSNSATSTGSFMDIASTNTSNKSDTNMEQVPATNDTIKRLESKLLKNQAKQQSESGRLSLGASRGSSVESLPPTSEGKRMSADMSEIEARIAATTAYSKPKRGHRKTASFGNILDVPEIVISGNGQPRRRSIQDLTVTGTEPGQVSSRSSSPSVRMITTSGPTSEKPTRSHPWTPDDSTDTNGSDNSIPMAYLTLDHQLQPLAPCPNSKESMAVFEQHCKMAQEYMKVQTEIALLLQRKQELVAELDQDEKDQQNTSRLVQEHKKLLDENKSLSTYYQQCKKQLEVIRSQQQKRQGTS

Structure (SMILES): CN(c1ncccc1CNc1nc(Nc2ccc3c(c2)CC(=O)N3)ncc1C(F)(F)F)S(C)(=O)=O [PF562271]
stimulatory effect of BmxWT on wound healing migration [1]: blocked

inhibition at 1 µM (JNK1): 1.9%
inhibition at 1 µM (PIK3CG): 4.2%
Percent Control, ITK (ITK): 29%
inhibition at 1 µM (PIK4CB): 2.3%
inhibition at 1 µM (DYRK1A): 0.1%
EC50 (OCI-Ly3 cells): 80 nM
EC50 (OCI-Ly19 cells): 40 nM
inhibition at 1 µM (CSNK2A2): 1.2%
inhibition at 1 µM (DYRK2): 0.6%
IC50 (BMX [2]): 7.36 nM and 7 nM
inhibition at 1 µM (PIP5K2C): 2.7%
Percent Control, EGFR(T790M) (EGFR(T790M) [3]; DiscoverX binding): 1.8%
inhibition at 1 µM (EGFR(T790M) [3]; read-out: % inhibition at 1 uM, EGFR(T790M)): 1.4%
EC50 (Ramos cells): 40 nM
inhibition at 1 µM (JNK3): 1.8%
Percent Control, mTOR (mTOR [4]): 0%
IC50 (EGFR(T790M) [5]): 98.8 nM
inhibition at 1 µM (IRAK3): 0.7%
IC50 (CLK1 [6]): 384 nM
Percent Control, BMX (BMX [7]): 4.6%
inhibition at 1 µM (MKNK2): 0.15%
Percent Control, BLK (BLK [8]; DiscoverX binding): 2.4%
inhibition at 1 µM (BLK [8]; read-out: % inhibition at 1 uM, BLK): 2.4%
Percent Control, JAK3 (JAK3 [9]; DiscoverX binding): 0%
inhibition at 1 µM (JAK3 [9]; read-out: % inhibition at 1 uM, JAK3(JH1domain-catalytic)): 0%
IC50 (BLK [10]): 30.2 nM and 30 nM
IC50 (mTOR [11]): 21.9 nM and 22 nM
inhibition at 1 µM (YSK4): 1.2%
Percent Control, TEC (TEC): 6%
EC50 (MWCL-1 cells): 180 nM
inhibition at 1 µM (DYRK1B): 1.8%
% inhibition at 1 uM, FLT3(ITD) (FLT3(ITD)): 2.4%
inhibition at 1 µM (MEK5): 0.3%
inhibition at 1 µM (TAK1): 0.35%
IC50 (CLK2 [12]): 50 nM
inhibition at 1 µM (PIK3CA(I800L)): 0.45%
IC50 (JAK3 [13]): 38.1 nM and 38 nM
Percent Control, CLK1/2 (CLK1) (CLK1 [14]; DiscoverX binding, first value of cell): 0.4%
inhibition at 1 µM (CLK1 [14]; read-out: % inhibition at 1 uM, CLK1): 0.4%
Percent Control, CLK1/2 (CLK2) (CLK2 [15]; DiscoverX binding, second value of cell): 1.0%
inhibition at 1 µM (CLK2 [15]; read-out: % inhibition at 1 uM, CLK2): 1.6%
IC50 (BTK [16]): 5.34 nM and 5 nM
Percent Control, BTK (BTK [17]; DiscoverX binding): 0.2%
percent of control (remaining binding) at 1 µM (BTK [17]; read-out: % inhibition at 1 uM, BTK): 0.2%
EC50 (BCWM.1 cells): 50 nM
Structure (SMILES): C=CC(=O)Nc1cc(-n2c(=O)ccc3cnc4ccc(-c5cn[nH]c5)cc4c32)ccc1C [II-6]

EC50 (OCI-Ly3 cells): 190 nM
EC50 (OCI-Ly19 cells): 30 nM
EC50 (MWCL-1 cells): 190 nM
EC50 (BCWM.1 cells): 120 nM
Structure (SMILES): C=CC(=O)N1CCc2ccc(-n3c(=O)ccc4cnc5ccc(-c6cnn(C)c6)cc5c43)cc21 [II-4]
killing of ex vivo CD19+ B-cells [18]: effectively killed ex vivo cells

Structure (SMILES): NC1(c2ccc(-c3nc4ccn5c(=O)[nH]nc5c4cc3-c3ccccc3)cc2)CCC1 [MK2206]
MK2206 concentration that potentiates the antiproliferative activity of I-14 (RV-1 cells): ≤ 25 nM
